Article PMC7367873, “Dissecting the sequence determinants for dephosphorylation by the catalytic subunits of phosphatases PP1 and PP2A” (Nature Communications, 2020)

test system: GFP-14-3-3β and its binding proteins; assay: GFP-14-3-3β co-IP with LC-MS/MS label-free quantification, untreated versus PP1c-treated; set-up: species or system human; details: GFP-14-3-3β co-IP LC-MS/MS; PP1 vs untreated; student's t-test; label-free quantification, 3 replicates each
Procedure: (§1) HeLa Kyoto cells expressing transiently transfected pEGFP(C1)-14-3-3β or pEGFP(C1) control plasmid, were incubated with 20 nM Calyculin A (# 9902 S, Cell Signaling Technology) for 12 min. Cells were washed twice on ice with cold PBS and after addition of 500 µL lysis buffer (100 mM NaCl, 10 mM Tris, 0.1% IGEPAL, 1 mM EDTA, 1 mM EGTA, 20 nM Calyculin A, 1x cOmplete Mini protease inhibitor cocktail (Sigma), 1 mM DTT, 1 mM MnCl2) cells were scraped from plates, lysed by 10 pushes through an injection needle (21 G, BD) and the insoluble fraction was pelleted by centrifugation (10 min, 10^4 rcf, 4 °C). Supernatants were then subjected to incubation with 1 µM recombinant phosphatase or buffer for 1 h at 30 °C. Next, we subjected samples to immunoprecipitation using α-GFP nanobodies covalently coupled to agarose beads (2 h, 4 °C, obtained from the EMBL PEPcore Core Facility). Beads were then washed three times with lysis buffer and samples were eluted in 1x LDS sample buffer (Thermo Fisher Scientific) by heating to 70 °C for 10 min.
(§2) The samples were then reduced with 25 mM dithiothreitol (10 min at 70 °C) and alkylated with 55 mM chloroacetamide (room temperature, 30 min, in the dark). Proteins were run on a precast 4–12% NuPAGE gel (ThermoFisher Scientific) for about 1 cm to concentrate the sample prior to in-gel tryptic digestion, which was performed according to the standard procedures. The peptides obtained were dried to completeness and resuspended in 12 µL of buffer A (0.1% FA), and 5 µL of sample were injected per MS measurement. The experiment was carried out in three independent replicates.
(§3) The samples were analyzed by LC-MS/MS on a Dionex Ultimate 3000 nano-HPLC coupled online to a Fusion Lumos Tribrid mass spectrometer (Thermo Fisher Scientific). Peptides were delivered to a trap column (75 µm × 2 cm, packed in-house with 5 µm C18 resin; Reprosil PUR AQ, Dr. Maisch) and washed using 0.1% FA at a flow rate of 5 µL/min for 10 min. Subsequently, peptides were transferred to an analytical column (75 µm × 45 cm, packed in-house with 3 µm C18 resin; Reprosil Gold) applying a flow rate of 300 nL/min and separated using a 60 min linear gradient from 4% to 32% LC solvent B (0.1% FA, 5% DMSO in ACN) in LC solvent A (0.1% FA in 5% DMSO). The eluate from the analytical column was sprayed via a stainless steel emitter (Thermo Fisher Scientific) at a source voltage of 2.1 kV into the mass spectrometer. The transfer capillary was heated to 275 °C. The Fusion Lumos was operated in positive ionization mode and data-dependent acquisition (DDA), automatically switching between MS1 and MS2 spectrum acquisition. Full scan MS1 spectra were recorded in the Orbitrap from 360 to 1300 m/z at a resolution of 60k (automatic gain control (AGC) target value of 4e5 charges, maximum injection time (maxIT) of 50 ms). Up to 20 peptide precursors were isolated (isolation window, 1.7 m/z; maximum injection time, 25 ms; and AGC value, 1e5), fragmented by high-energy collision-induced dissociation (HCD) using 30% normalized collision energy (NCE), and analyzed at a resolution of 15k in the Orbitrap. Precursor ions that were singly charged, unassigned, or with charge states >6+ were excluded. The dynamic exclusion duration of fragmented precursor ions was 20 s.
(§4) Peptide and protein identification and LFQ were performed using MaxQuant software (version 1.6.1.0)[64] by searching the data against all canonical protein sequences as annotated in the Swissprot reference database (human proteins only, 20193 entries, downloaded 22 March 2016, internally annotated with PFAM domains) using the embedded search engine Andromeda[65]. The MaxQuant search was performed using two variable modifications; oxidation of methionine and N-terminal protein acetylation. Carbamidomethylation on cysteines was specified as a fixed modification. Trypsin (Trypsin/P) was specified as the proteolytic enzyme with up to two allowed missed cleavage sites.

| Substance | Difference (log2), PP1 vs untreated [log2] |
| --- | --- |
| SLC7A5 | -0.2534 |
| NUP188 | -0.6223 |
| HSPA5 | -0.6263 |
| CLTC | -0.2648 |
| PNN | -0.4869 |
| RNF5 | -0.2892 |
| TUBB | -0.1729 |
| CKAP5 | -0.2118 |
| SNRNP200 | -0.2654 |
| AHNAK | -0.4038 |

same assay, conditions: PP1 vs untreated; LFQ intensities, replicates 1-3

| Substance | Difference (log2), PP1 vs untreated [log2] |
| --- | --- |
| GNG12 | -1.974 |
| KHDRBS1 | -0.7597 |
| BRAF | -1.253 |

same assay, conditions: PP1 vs untreated; LFQ intensities; 3 replicates each

| Substance | Difference (log2), PP1 vs untreated [log2] |
| --- | --- |
| FAM98A | 0.6235 |
| TUBA4A | 0.3784 |
| USP10 | 0.4174 |
| PTBP1 | 0.7235 |

same assay, conditions: PP1 vs untreated; label-free quantification

| Substance | Difference (log2), PP1 vs untreated [log2] |
| --- | --- |
| CLPX | 1.1943 |
| EMD | 1.014 |
| CCT3 | 0.8223 |
| MED1 | 1.148 |
| MAP7D1 | 0.8008 |

same assay, conditions: log2 difference; pairwise comparison PP1 vs untreated, label-free quantification, 3 replicates each

| Substance | Difference (log2), PP1 vs untreated |
| --- | --- |
| GEMIN5 | 1.609 |
| RFC5 | 1.3455 |
| ATP5B | 1.371 |
| FXR2 | 2.11 |

same assay, conditions: pairwise comparison PP1 vs untreated

| Substance | Difference (log2), PP1 vs untreated [log2] |
| --- | --- |
| NAV1 | -0.101 |
| HERC2 | 0.111 |
| EPPK1 | 0.1139 |
| HNRNPK | 0.05533 |
| DTX3L | -0.03751 |

same assay, conditions: pairwise comparison PP1 vs untreated, student's t-test; 3 replicates each; LC-MS/MS label-free quantification

| Substance | Difference (log2), PP1 vs untreated [log2] |
| --- | --- |
| PIK3C2B | -3.205 |
| SFN | -4.908 |
| MARK2 | -2.124 |
| WWC2 | -3.571 |
| MYO18A | -3.467 |
| DNMBP | -4.455 |
| SRGAP2 | -5.683 |
| FLNA | -2.217 |
| DYNLL1 | -2.451 |

test system: GFP-14-3-3β; assay: GFP-14-3-3β co-IP with LC-MS/MS, untreated GFP-14-3-3β versus GFP control (14-3-3 interactome); type: binding, human; details: GFP-14-3-3β co-IP LC-MS/MS; untreated vs GFP; student's t-test; label-free quantification, 3 replicates each
Procedure: as §1, §2, §3, §4

| Substance | Difference (log2), untreated vs GFP [log2] |
| --- | --- |
| SLC7A5 | 0.7726 |
| NUP188 | 1.172 |
| HSPA5 | -0.3432 |
| CLTC | 0.0549 |
| PNN | 2.978 |
| RNF5 | 0.3906 |
| TUBB | -1.012 |
| CKAP5 | -0.6501 |
| SNRNP200 | 1.652 |
| AHNAK | -1.21 |

same assay, conditions: UntrtedvsGFP, Perseus raw output, LFQ intensity difference

| Substance | Difference |
| --- | --- |
| SFN | 10.1517 |

same assay, conditions: log2 difference; pairwise comparison untreated vs GFP, label-free quantification, 3 replicates each

| Substance | Difference (log2), untreated vs GFP |
| --- | --- |
| GEMIN5 | -0.2087 |
| RFC5 | -0.3031 |
| ATP5B | -0.3021 |
| FXR2 | -0.343 |

same assay, conditions: pairwise comparison untreated GFP-14-3-3β vs GFP, student's t-test; 3 replicates each; LC-MS/MS label-free quantification

| Substance | Difference (log2), untreated vs GFP [log2] |
| --- | --- |
| PIK3C2B | 5.48 |
| SFN | 10.1517 |
| MARK2 | 5.827 |
| WWC2 | 4.409 |
| MYO18A | 2.435 |
| DNMBP | 3.515 |
| SRGAP2 | 5.241 |
| FLNA | -0.8027 |
| DYNLL1 | 3.684 |

same assay, conditions: pairwise comparison untreated vs GFP

| Substance | Difference (log2), untreated vs GFP [log2] |
| --- | --- |
| NAV1 | 1.95 |
| HERC2 | -0.06655 |
| EPPK1 | 0.5175 |
| HNRNPK | 0.6096 |
| DTX3L | 0.3421 |

same assay, conditions: untreated vs GFP; LFQ intensities, replicates 1-3

| Substance | Difference (log2), untreated vs GFP [log2] |
| --- | --- |
| GNG12 | -0.9148 |
| KHDRBS1 | -0.7979 |
| BRAF | 7.361 |

same assay, conditions: untreated vs GFP; LFQ intensities; 3 replicates each

| Substance | Difference (log2), untreated vs GFP [log2] |
| --- | --- |
| FAM98A | 0.9941 |
| TUBA4A | -0.9346 |
| USP10 | 1.017 |
| PTBP1 | -0.5421 |

same assay, conditions: untreated vs GFP; label-free quantification

| Substance | Difference (log2), untreated vs GFP [log2] |
| --- | --- |
| CLPX | 0.9407 |
| EMD | -1.504 |
| CCT3 | 0.2505 |
| MED1 | 0.09613 |
| MAP7D1 | 0.3595 |
